Measured values reported in patent US11166941B2, “Synergistic nutritional compositions for enhancing ATP efficiency” (CELAGENEX RESEARCH (INDIA) PVT. LTD., priority 2020, dated 2021).

Key:
[1] = tested on: HepG2 (Human Hepatocyte) cell line; assay: In vitro cytotoxicity by MTT assay on HepG2 cell line; type: cell-based; details: 72 hours; for IC50 / inhibition at 62.5 µg/mL / inhibition at 125 µg/mL / inhibition at 250 µg/mL / inhibition at 500 µg/mL / inhibition at 1000 µg/mL: Homo sapiens; for IC50: read-out: CTC 50
Protocol: The in vitro cytotoxicity was performed on HepG2 (Human Hepatocyte) cell line to find a non-toxic concentration of the test substances by MTT assay and the potential of test substances to increase the cellular ATP levels was evaluated by kit method. For test substance ABC, the test substances were combined in the weight ratio of 1:0.05:0.01. A weight of about 10 mg of ABC was dissolved in 100 μl of DMSO and the volume was made up to 1 ml with DMEM-HG (Dulbecco's Modified Eagle Medium High Glucose). For individual test substances A, B and C, about 10 mg of all the test substances were weighed and separately dissolved with 100 μl of DMSO and volume was made up with DMEM-HG supplemented with 2% inactivated FBS to obtain a stock solution of 1 mg/ml concentration. The samples were further sterilized by 0.22 syringe filtration. Serial two-fold dilutions were prepared from the stock for carrying out further studies. Cell line was cultured in DMEM-HG supplemented with 10% inactivated Fetal Bovine Serum (FBS), penicillin (100 IU/ml), streptomycin (100 μg/ml) and amphotericin B (5 μg/ml) in a humidified atmosphere of 5% CO2 at 37° C. until confluent. The cells were dissociated with TPVG solution (0.2% trypsin, 0.02% EDTA, 0.05% glucose in PBS). The stock cultures were grown in 25 cm^2 culture flasks and all experiments were carried out in 96 well microtitre plates (Tarsons India Pvt. Ltd., Kolkata, India). The monolayer cell culture was trypsinized and the cell count was adjusted to 1.0×10^5 cells/ml using DMEM-HG containing 10% FBS. To each well of the 96 well microtitre plate, 0.1 ml of the diluted cell suspension was added. After 24 hours, when a partial monolayer was formed, the supernatant was flicked off, the monolayer was washed once with medium and 100 μl of different concentrations of test substances were added. The plate was then incubated at 37° C. for 72 hours in a 5% CO2 atmosphere, and microscopic examination was carried out with observations being noted at a 24-hour interval. After 72 hours of incubation, the drug solutions in the wells were discarded and 50 μl of MTT in PBS was added to each well. The plate was gently shaken and incubated for 3 hours at 37° C. in a 5% CO2 atmosphere. The supernatant was removed and 100 μl of 2-propanol was added and the plate was gently shaken to solubilize the formed formazan. The absorbance was measured using a microplate reader at a wavelength of 540 nm. The percentage growth inhibition was calculated using the standard formula. The concentration of test substances needed to inhibit the growth of the cell by 50% i.e., CTC50 values were generated from the dose-response curves.

HepG2 cells = assay: Estimation of cellular respiration by measuring cellular ATP levels (kit method) in HepG2 cells; type: cell-based, Human; details: for % ATP Enhancement / ATP enhancement fold: over control; for Cellular ATP Conc.: HepG2, 2 hours treatment
Protocol: The test substances were evaluated for their in vitro effect on cellular energy by measuring cellular ATP levels in human Hepatocytes (HepG2) cell line. In the given experimental conditions, treatment with the test substances improved cellular ATP levels in vitro [J Immunol Methods; 1986; 89: 271-277]; [Proc Nal Acad Sci USA; 2009; 106: 15651-15656].
For test substance ABC, the test substances were combined in the weight ratio of 1:0.05:0.01. A weight of about 10 mg of ABC was dissolved in 100 μl of DMSO and the volume was made up to 1 ml with DMEM-HG (Dulbecco's Modified Eagle Medium High Glucose). For individual test substances A, B and C, about 10 mg of all the test substances were weighed and separately dissolved with 100 μl of DMSO and volume was made up with DMEM-HG supplemented with 2% inactivated FBS to obtain a stock solution of 1 mg/ml concentration. The samples were further sterilized by 0.22 syringe filtration. Serial two-fold dilutions were prepared from the stock for carrying out further studies.
Cell line was cultured in DMEM-HG supplemented with 10% inactivated Fetal Bovine Serum (FBS), penicillin (100 IU/ml), streptomycin (100 μg/ml) and amphotericin B (5 μg/ml) in a humidified atmosphere of 5% CO2 at 37° C. until confluent. The cells were dissociated with TPVG solution (0.2% trypsin, 0.02% EDTA, 0.05% glucose in PBS). The stock cultures were grown in 25 cm^2 culture flasks and all experiments were carried out in 96 well microtitre plates (Tarsons India Pvt. Ltd., Kolkata, India).
HepG2 cells were trypsinized from stock culture flasks and the cell count was adjusted to 1.0×10^5 cells/ml to obtain a cell suspension that was seeded into a 6-well plate. After 24 hours, cell cultures achieved 70-80% confluency and were treated with different nontoxic concentrations of test substances. After 2 hours of treatment, the plate was washed with phosphate buffer saline. The cellular ATP level determination was performed according to the instructions given in the kit manual (SIGMA, #MAK190). At the end of the experiment, the optical density was read at 570 nm using microplate reader. From the absorbance values, the cellular ATP levels were estimated using kit protocol and the concentration of cellular ATP in treated groups were determined in comparison to the control groups.

[2] = cell studies, background statement; cited from earlier work
[3] = concentration inhibiting cell growth by 50%

Compound	IC50 [1, 3]	inhibition at 62.5 µg/mL ([1]; test conc. 62.5 μg/ml)	inhibition at 125 µg/mL ([1]; test conc. 125 μg/ml)	inhibition at 250 µg/mL ([1]; test conc. 250 μg/ml)	inhibition at 500 µg/mL ([1]; test conc. 500 μg/ml)	inhibition at 1000 µg/mL ([1]; test conc. 1000 μg/ml)	enhancement of cellular ATP levels over the control (in words) (HepG2 cells; HepG2, 500 μg/ml)	% ATP Enhancement (HepG2 cells; HepG2, 500 μg/ml)	ATP enhancement fold (HepG2 cells; HepG2, 500 μg/ml)	also measured
O=C(O)CCCC[C@@H]1SC[C@@H]2NC(=O)N[C@@H]21 [D-Biotin (B), Biotin]	> 1000 µg/mL	6.13 ± 3.48%	25.1 ± 0.81%	31.2 ± 1.17%	42.9 ± 1.29%	47.6 ± 1.45%	No significant enhancement	22%	1.11 fold	Cellular ATP Conc. (HepG2 cells; 500 μg/ml, listed as B): 6.05 ± 0.33 mM; Cellular ATP Conc. (HepG2 cells; 500 μg/ml, listed as Biotin (B)): 6.05 ± 0.33 mM
O=C(O)CC(=O)C(=O)O [Stabilized Oxaloacetate (A), Oxaloacetic acid]	> 1000 µg/mL	10.7 ± 0.84%	16.6 ± 0.82%	23.8 ± 2.25%	34.4 ± 2.2%	40.4 ± 1.22%	No significant enhancement	10%	1.09 fold	Cellular ATP Conc. (HepG2 cells; 500 μg/ml): 5.42 ± 0.25 mM; Cellular ATP Conc. (HepG2 cells; 500 μg/ml, listed as Oxaloacetic acid (A)): 5.42 ± 0.25 mM
O=C(O)CC(=O)C(=O)O [oxaloacetate]	–	–	–	–	–	–	–	–	–	increase muscular endurance [2]: up to 10%
OO [Composition H2O2, H2O2, reference compound]	–	–	–	–	–	–	–	–	–	ATP enhancement fold (HepG2 cells; HepG2, 20 μM): 0.67 fold; Cellular ATP Conc. (HepG2 cells; 20 μM): 1.97 ± 0.45 mM
manganese (II) sulphate monohydrate [Manganese-Sulphate (C)]	–	–	–	–	–	–	No significant enhancement	00%	1.00 fold	CTC 50 [1, 3]: 558.91 ± 6.22 µg/mL; % Inhibition ([1]; test conc. 62.5 μg/ml): 30.00 ± 0.54%; % Inhibition ([1]; test conc. 125 μg/ml): 35.54 ± 0.47%; % Inhibition ([1]; test conc. 250 μg/ml): 42.44 ± 0.81%; % Inhibition ([1]; test conc. 500 μg/ml): 48.75 ± 0.18%; % Inhibition ([1]; test conc. 1000 μg/ml): 59.35 ± 0.63%; Cellular ATP Conc. (HepG2 cells; 500 μg/ml, listed as C, sulphate monohydrate): 4.92 ± 0.13 mM; Cellular ATP Conc. (HepG2 cells; 500 μg/ml, listed as Manganese sulphate (C), sulphate monohydrate): 4.92 ± 0.13 mM
Oc1ccc(C=Cc2cc(O)cc(O)c2)cc1 [Resveratrol, reference compound]	–	–	–	–	–	–	–	–	–	% ATP Enhancement (HepG2 cells; HepG2, 100 μg/ml): 13%; ATP enhancement fold (HepG2 cells; HepG2, 100 μg/ml): 1.09 fold; Cellular ATP Conc. (HepG2 cells; 100 μg/ml): 5.56 ± 0.37 mM
